Reference: paper PMC10695193 (RSC Advances, 2023)

Assays:
[1] = system: HepG2; assay: MTT anti-proliferative assay, HepG2; type: cell-based; conditions: for IC50: Homo sapiens, HepG2, 72 h, read-out: IC50 HepG2; for fold times more toxic in HepG-2 than in VERO normal cells: HepG-2 versus VERO
[2] = system: HCT-116; assay: MTT anti-proliferative assay, HCT-116; type: cell-based; conditions: for IC50: Homo sapiens, HCT-116, 72 h, read-out: IC50 HCT116; for folds toxic in HCT-116 than in normal VERO cells: HCT-116 versus VERO
[3] = system: MCF-7; assay: MTT anti-proliferative assay, MCF-7; type: cell-based; conditions: for IC50: Homo sapiens, MCF7, 72 h, read-out: IC50 MCF-7; for folds toxic in MCF-7 than in ordinary VERO cells: MCF-7 versus VERO
[4] = system: A549; assay: MTT anti-proliferative assay, A549; type: cell-based; conditions: for IC50: Homo sapiens, A549, 72 h, read-out: IC50 A549; for folds toxic in A549 than in ordinary VERO cells: A549 versus VERO
[5] = target: VEGFR-2 (Homo sapiens, UniProt P35968); assay: VEGFR-2 kinase inhibitory assay; type: biochemical
Chain of VEGFR-2 (P35968 20-1356): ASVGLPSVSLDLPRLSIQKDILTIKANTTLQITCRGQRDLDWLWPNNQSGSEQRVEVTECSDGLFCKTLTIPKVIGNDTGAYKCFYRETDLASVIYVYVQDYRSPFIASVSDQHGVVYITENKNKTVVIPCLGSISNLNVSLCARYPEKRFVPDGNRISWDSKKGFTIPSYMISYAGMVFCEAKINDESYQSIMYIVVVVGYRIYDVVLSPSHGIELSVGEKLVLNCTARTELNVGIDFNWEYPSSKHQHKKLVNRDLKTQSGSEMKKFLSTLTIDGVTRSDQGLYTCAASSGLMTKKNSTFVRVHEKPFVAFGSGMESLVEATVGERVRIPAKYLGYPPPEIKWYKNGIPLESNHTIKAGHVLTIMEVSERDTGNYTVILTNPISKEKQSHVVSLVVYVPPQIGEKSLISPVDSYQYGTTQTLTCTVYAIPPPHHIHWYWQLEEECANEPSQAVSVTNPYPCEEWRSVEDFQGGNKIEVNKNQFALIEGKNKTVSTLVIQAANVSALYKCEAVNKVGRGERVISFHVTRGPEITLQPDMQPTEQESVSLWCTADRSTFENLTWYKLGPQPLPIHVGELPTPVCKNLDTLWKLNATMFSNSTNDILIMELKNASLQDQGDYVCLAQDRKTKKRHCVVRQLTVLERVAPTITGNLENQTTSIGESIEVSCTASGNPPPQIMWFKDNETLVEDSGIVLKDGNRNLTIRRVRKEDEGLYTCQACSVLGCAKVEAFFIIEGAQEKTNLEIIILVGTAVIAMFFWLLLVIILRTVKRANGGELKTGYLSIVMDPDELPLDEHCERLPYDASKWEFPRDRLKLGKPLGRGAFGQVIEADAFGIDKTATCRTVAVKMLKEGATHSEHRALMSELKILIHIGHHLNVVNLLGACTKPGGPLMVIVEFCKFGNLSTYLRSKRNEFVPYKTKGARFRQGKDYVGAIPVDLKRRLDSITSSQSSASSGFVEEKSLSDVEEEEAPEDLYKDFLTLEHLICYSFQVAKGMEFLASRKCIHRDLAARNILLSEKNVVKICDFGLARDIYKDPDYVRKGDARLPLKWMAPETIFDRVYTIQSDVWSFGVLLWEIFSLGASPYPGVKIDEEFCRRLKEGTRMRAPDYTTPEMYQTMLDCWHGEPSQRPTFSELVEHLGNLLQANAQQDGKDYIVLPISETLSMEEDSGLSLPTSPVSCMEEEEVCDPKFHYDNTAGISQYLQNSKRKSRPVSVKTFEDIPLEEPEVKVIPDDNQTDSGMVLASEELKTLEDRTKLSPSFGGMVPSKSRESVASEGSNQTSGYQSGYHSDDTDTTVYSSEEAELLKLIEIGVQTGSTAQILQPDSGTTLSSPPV

[6] = target: EGFR^T790M (Homo sapiens, UniProt P00533, T790M); assay: EGFR^T790M kinase inhibitory assay; type: biochemical
Chain of EGFR^T790M (P00533 25-1210 T790M): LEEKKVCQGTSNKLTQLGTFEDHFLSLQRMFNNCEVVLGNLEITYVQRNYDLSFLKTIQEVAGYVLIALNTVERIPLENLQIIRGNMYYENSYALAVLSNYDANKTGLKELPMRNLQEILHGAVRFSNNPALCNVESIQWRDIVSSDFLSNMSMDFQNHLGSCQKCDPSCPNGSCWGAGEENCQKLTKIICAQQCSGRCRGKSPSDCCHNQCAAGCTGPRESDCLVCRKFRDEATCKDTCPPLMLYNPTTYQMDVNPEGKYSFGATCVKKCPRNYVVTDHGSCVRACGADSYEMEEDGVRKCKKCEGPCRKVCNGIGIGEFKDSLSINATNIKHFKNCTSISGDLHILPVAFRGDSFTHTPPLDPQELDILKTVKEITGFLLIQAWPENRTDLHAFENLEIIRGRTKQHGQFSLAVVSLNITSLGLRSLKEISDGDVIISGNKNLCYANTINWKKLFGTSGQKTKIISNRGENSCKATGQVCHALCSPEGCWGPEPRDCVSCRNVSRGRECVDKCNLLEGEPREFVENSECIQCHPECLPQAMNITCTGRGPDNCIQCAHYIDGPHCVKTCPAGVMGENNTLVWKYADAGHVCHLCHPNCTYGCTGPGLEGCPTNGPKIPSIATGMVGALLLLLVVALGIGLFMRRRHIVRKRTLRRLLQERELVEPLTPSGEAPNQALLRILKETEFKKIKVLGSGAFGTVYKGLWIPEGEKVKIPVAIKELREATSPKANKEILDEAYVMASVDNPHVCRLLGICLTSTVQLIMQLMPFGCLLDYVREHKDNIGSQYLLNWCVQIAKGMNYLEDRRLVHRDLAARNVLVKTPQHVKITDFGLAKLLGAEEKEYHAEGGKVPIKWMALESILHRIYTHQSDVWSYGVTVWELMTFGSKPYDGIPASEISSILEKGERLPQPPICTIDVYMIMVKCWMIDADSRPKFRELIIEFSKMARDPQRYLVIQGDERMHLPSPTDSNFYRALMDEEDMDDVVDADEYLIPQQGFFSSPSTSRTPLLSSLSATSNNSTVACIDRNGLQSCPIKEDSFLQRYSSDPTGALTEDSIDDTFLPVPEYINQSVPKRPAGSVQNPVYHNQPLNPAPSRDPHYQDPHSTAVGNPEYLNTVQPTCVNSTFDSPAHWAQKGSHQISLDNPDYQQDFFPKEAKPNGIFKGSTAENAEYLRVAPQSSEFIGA

NC1=NNC(=O)C1=NNc1ccc(N=Nc2ccccc2)cc1 [Compound 4, 5-Amino-4-{2-[4-(phenyldiazenyl)phenyl]hydrazono}-2,4-dihydro-3H-pyrazol-3-one]
IC50 [1]: 10.6 ± 3 µM
IC50 [2]: 11.3 ± 3.1 µM
IC50 [3]: 11.3 ± 3.3 µM
IC50 [4]: 10.8 ± 1.5 µM
IC50 [5]: 1850 ± 100 nM
IC50 [6]: 1200 ± 350 nM

NC(=O)N1N=C(N)C(N=Nc2ccc(N=Nc3ccccc3)cc2)C1=O (stereo not drawn) [Compound 7, 3-Amino-5-oxo-4-{[4-(phenyldiazenyl)phenyl]diazenyl}-4,5-dihydro-1H-pyrazole-1-carboxamide]
IC50 [1]: 15.6 ± 3.5 µM
IC50 [2]: 17.5 ± 4 µM
IC50 [3]: 14.2 ± 3.5 µM
IC50 [4]: 8.5 ± 0.5 µM
IC50 [5]: 2350 ± 200 nM
IC50 [6]: 900 ± 250 nM

N#Cc1nn(-c2ccc(N=Nc3ccccc3)cc2)c(=S)n(-c2ccccc2)c1=O [Compound 10, 5-Oxo-4-phenyl-2-[4-(phenyldiazenyl)phenyl]-3-thioxo-2,3,4,5-tetrahydro-1,2,4-triazine-6-carbonitrile]
fold times more toxic in HepG-2 than in VERO normal cells [1]: 6.39 fold
IC50 [1]: 6.81 ± 1.9 µM
folds toxic in HCT-116 than in normal VERO cells [2]: 4.96 folds
IC50 [2]: 9.23 ± 2.2 µM
IC50 [3]: 7.28 ± 2.4 µM
folds toxic in MCF-7 than in ordinary VERO cells [3]: 5.81 folds
folds toxic in A549 than in ordinary VERO cells [4]: 8.67 folds
IC50 [4]: 7.35 ± 1.5 µM
IC50 [5]: 1500 ± 100 nM
IC50 [6]: 500 ± 250 nM

NC1=NOC(=O)C1=NNc1ccc(N=Nc2ccccc2)cc1 [Compound 3, 3-Amino-4-{2-[4-(phenyldiazenyl)phenyl]hydrazono}isoxazol-5(4H)-one]
IC50 [1]: 19 ± 4.4 µM
IC50 [2]: 16.8 ± 3.7 µM
IC50 [3]: 17.6 ± 4.5 µM
IC50 [4]: 25.5 ± 3.5 µM
IC50 [5]: 3250 ± 500 nM
IC50 [6]: 2100 ± 250 nM

CNC(=O)c1cc(Oc2ccc(NC(=O)Nc3ccc(Cl)c(C(F)(F)F)c3)cc2)ccn1 [Sorafenib, reference compound]
IC50 [1]: 4 ± 0.33 µM

N#Cc1nn(-c2ccc(N=Nc3ccccc3)cc2)c(=O)[nH]c1=O [Compound 12, 3,5-Dioxo-2-[4-(phenyldiazenyl)phenyl]-2,3,4,5-tetrahydro-1,2,4-triazine-6-carbonitrile]
IC50 [1]: 21.1 ± 4.9 µM
IC50 [2]: 22.5 ± 4.8 µM
IC50 [3]: 30.2 ± 4.8 µM
IC50 [4]: 9.25 ± 1.5 µM
IC50 [5]: 3500 ± 500 nM
IC50 [6]: 950 ± 350 nM

C#Cc1cccc(Nc2ncnc3cc(OCCOC)c(OCCOC)cc23)c1 [Erlotinib, reference compound]
IC50 [3]: 8.2 ± 0.34 µM

N#Cc1nn(-c2ccc(N=Nc3ccccc3)cc2)c(=N)n(S(=O)(=O)c2ccc(N)cc2)c1=O [Compound 14, 4-[(4-Aminophenyl)sulfonyl]-3-imino-5-oxo-2-[4-(phenyldiazenyl)phenyl]-2,3,4,5-tetrahydro-1,2,4-triazine-6-carbonitrile]
fold times more toxic in HepG-2 than in VERO normal cells [1]: 6.86 fold
IC50 [1]: 6.23 ± 2.3 µM
folds toxic in HCT-116 than in normal VERO cells [2]: 7.68 folds
IC50 [2]: 8.44 ± 2.6 µM
IC50 [3]: 6.37 ± 2.5 µM
folds toxic in MCF-7 than in ordinary VERO cells [3]: 5.76 folds
folds toxic in A549 than in ordinary VERO cells [4]: 10.72 folds
IC50 [4]: 5.15 ± 1.5 µM
IC50 [5]: 950 ± 100 nM
IC50 [6]: 250 ± 150 nM

N#Cc1nn(-c2ccc(N=Nc3ccccc3)cc2)c(=N)[nH]c1=O [Compound 13, 3-Imino-5-oxo-2-[4-(phenyldiazenyl)phenyl]-2,3,4,5-tetrahydro-1,2,4-triazine-6-carbonitrile]
IC50 [1]: 20.5 ± 4.2 µM
IC50 [2]: 20.1 ± 3.5 µM
IC50 [3]: 23.1 ± 3.8 µM
IC50 [4]: 15.5 ± 2.5 µM
IC50 [5]: 3350 ± 500 nM
IC50 [6]: 1500 ± 150 nM

N#Cc1nn(-c2ccc(N=Nc3ccccc3)cc2)c(=S)[nH]c1=O [Compound 11, 5-Oxo-2-[4-(phenyldiazenyl)phenyl]-3-thioxo-2,3,4,5-tetrahydro-1,2,4-triazine-6-carbonitrile]
IC50 [1]: 35.6 ± 4.8 µM
IC50 [2]: 37.9 ± 4.6 µM
IC50 [3]: 39.2 ± 4.8 µM
IC50 [4]: 30.2 ± 3.5 µM
IC50 [5]: 3850 ± 500 nM
IC50 [6]: 2500 ± 350 nM

NC1=NN(c2ccccc2)C(=O)C1=NNc1ccc(N=Nc2ccccc2)cc1 [Compound 5, 5-Amino-2-phenyl-4-{2-[4-(phenyldiazenyl)phenyl]hydrazono}-2,4-dihydro-3H-pyrazol-3-one]
fold times more toxic in HepG-2 than in VERO normal cells [1]: 5.72 fold
IC50 [1]: 7.8 ± 0.7 µM
folds toxic in HCT-116 than in normal VERO cells [2]: 5.53 folds
IC50 [2]: 8.12 ± 0.9 µM
IC50 [3]: 6.98 ± 1.1 µM
folds toxic in MCF-7 than in ordinary VERO cells [3]: 6.21 folds
folds toxic in A549 than in ordinary VERO cells [4]: 8.86 folds
IC50 [4]: 6.5 ± 1.5 µM
IC50 [5]: 1250 ± 500 nM
IC50 [6]: 400 ± 350 nM

NC1=NN(c2ccc([N+](=O)[O-])cc2[N+](=O)[O-])C(=O)C1=NNc1ccc(N=Nc2ccccc2)cc1 [Compound 6, 5-Amino-2-(2,4-dinitrophenyl)-4-{2-[4-(phenyldiazenyl)phenyl]hydrazono}-2,4-dihydro-3H-pyrazol-3-one]
fold times more toxic in HepG-2 than in VERO normal cells [1]: 5.49 fold
IC50 [1]: 8.17 ± 2.6 µM
folds toxic in HCT-116 than in normal VERO cells [2]: 4.47 folds
IC50 [2]: 10.1 ± 2.9 µM
IC50 [3]: 9.11 ± 2.7 µM
folds toxic in MCF-7 than in ordinary VERO cells [3]: 4.59 folds
folds toxic in A549 than in ordinary VERO cells [4]: 6.54 folds
IC50 [4]: 5.88 ± 0.5 µM
IC50 [5]: 1600 ± 500 nM
IC50 [6]: 350 ± 150 nM

N#CC(=NNc1ccc(N=Nc2ccccc2)cc1)c1nc(=S)[nH][nH]1 [Compound 9, N-[4-(Phenyldiazenyl)phenyl]-5-thioxo-2,5-dihydro-1H-1,2,4-triazole-3-carbohydrazonoyl-cyanide]
IC50 [1]: 14.5 ± 2.8 µM
IC50 [2]: 16.8 ± 3.3 µM
IC50 [3]: 13.8 ± 3 µM
IC50 [4]: 12.2 ± 2.5 µM
IC50 [5]: 2000 ± 100 nM
IC50 [6]: 1350 ± 150 nM
